The target in experiment [1] is GSK3α (GST-full length GSK3α) (Homo sapiens (Human), UniProt P49840). Put plainly: GSK3α TR-FRET kinase assay. It is filed as biochemical. An outline of the steps:
(§1)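 1 nM GST-GSK3α/β + cpd, 30 min preinc; add 200 nM biotin-pS645 GS(631-650) peptide + ATP (α 4 μM / β 2 μM, or 1 mM); 100 min RT, 50 mM Tris pH 7.5, 20 mM MgCl2, 1% DMSO; EDTA stop; SA-d2/Tb-pSer641 Ab 60 min; 665/615 ratio → IC50.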
For orientation: TR-FRET usually uses a lanthanide donor and a delayed reading to cut background.

For experiment [2], the target named is GSK3b (GST-full length GSK3b) (Homo sapiens (Human), UniProt P49841). Description: GSK3b TR-FRET kinase assay. It is filed as biochemical. An outline of the steps:
as §1

The mark [3] stands for this setting: 1 nM GSK3α, 4 μM ATP, 30 minute preincubation, geometric mean, read-out: GSK3-A TR-FRET BIOCHEMICAL (TR-FRET), GMean, IC50.
[4] abbreviates: read-out: GSK3-A (TR-FRET 1 mM ATP), GMean, IC50, 1 mM ATP, geometric mean.
[5] abbreviates: 1 nM GSK3b, 2 μM ATP, 30 minute preincubation, geometric mean, read-out: GSK3-B TR-FRET BIOCHEMICAL (TR-FRET), GMean, IC50.
[6] abbreviates: read-out: GSK3-B (TR-FRET 1 mM ATP), GMean, IC50, 1 mM ATP, geometric mean.
The mark [7] stands for this setting: 1 nM GSK3α, 4 μM ATP, 30 minute preincubation, read-out: GSK3-A TR-FRET BIOCHEMICAL (TR-FRET), IC50.
The mark [8] stands for this setting: 1 nM GSK3b, 2 μM ATP, 30 minute preincubation, read-out: GSK3-B TR-FRET BIOCHEMICAL (TR-FRET), IC50.
The mark [9] stands for this setting: 1 nM GSK3α, 4 μM ATP, 30 minute preincubation, Table 16, read-out: GSK3-A TR-FRET BIOCHEMICAL (TR-FRET), IC50.
[10] abbreviates: 1 nM GSK3b, 2 μM ATP, 30 minute preincubation, Table 16, read-out: GSK3-B TR-FRET BIOCHEMICAL (TR-FRET), IC50.
[11] abbreviates: 1 nM GSK3α, 4 μM ATP, 30 minute preincubation, Table 16, read-out: GSK3-A TR-FRET BIOCHEMICAL (TR-FRET).
The mark [12] stands for this setting: 1 nM GSK3b, 2 μM ATP, 30 minute preincubation, Table 16, read-out: GSK3-B TR-FRET BIOCHEMICAL (TR-FRET).

Molecules are shown by their SMILES. Read-outs that look alike come from different tables or passages of the source.

GSK3b (GST-full length GSK3b), sequence (P49841 whole entry): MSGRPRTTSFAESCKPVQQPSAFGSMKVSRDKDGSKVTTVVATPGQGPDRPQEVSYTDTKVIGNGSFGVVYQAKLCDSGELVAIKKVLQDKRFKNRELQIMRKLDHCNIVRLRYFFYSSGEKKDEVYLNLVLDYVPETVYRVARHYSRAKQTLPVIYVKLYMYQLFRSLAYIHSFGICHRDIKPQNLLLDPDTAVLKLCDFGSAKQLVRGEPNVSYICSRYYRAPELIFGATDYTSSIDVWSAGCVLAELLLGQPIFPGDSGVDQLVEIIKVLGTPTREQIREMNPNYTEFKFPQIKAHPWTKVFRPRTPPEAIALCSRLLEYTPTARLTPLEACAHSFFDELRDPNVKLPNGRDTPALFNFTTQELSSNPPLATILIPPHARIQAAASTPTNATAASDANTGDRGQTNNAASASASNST
GSK3α (GST-full length GSK3α), sequence (P49840 whole entry): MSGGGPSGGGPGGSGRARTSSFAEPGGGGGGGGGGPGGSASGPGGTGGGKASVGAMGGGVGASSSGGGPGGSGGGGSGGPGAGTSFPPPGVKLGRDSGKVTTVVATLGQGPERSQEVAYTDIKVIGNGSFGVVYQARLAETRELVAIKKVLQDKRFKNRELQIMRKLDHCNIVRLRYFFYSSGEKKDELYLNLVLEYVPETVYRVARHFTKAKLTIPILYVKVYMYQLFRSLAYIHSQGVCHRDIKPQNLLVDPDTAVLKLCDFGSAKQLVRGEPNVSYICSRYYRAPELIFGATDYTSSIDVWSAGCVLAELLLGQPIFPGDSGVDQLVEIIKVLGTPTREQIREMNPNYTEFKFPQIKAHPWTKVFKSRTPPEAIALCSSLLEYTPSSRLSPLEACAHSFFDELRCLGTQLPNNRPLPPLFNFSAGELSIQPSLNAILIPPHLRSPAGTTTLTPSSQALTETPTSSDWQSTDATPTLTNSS

Regarding `CC[C@@]1(c2cccc(-c3ccnc4c3CCC4)c2)C2=C(CC(C)(C)NC2=O)Nc2n[nH]cc21` [Compound 948313], the IC50 in experiment [1] (setting [3]) is at most 100 nM; in experiment [1] (setting [4]) it was 100 to 1000 nM; in experiment [2] (setting [5]) it was at most 100 nM; in experiment [2] (setting [6]) it was 1000 to 5000 nM.

As to `CC1(C)CC(=O)C2=C(C1)Nc1n[nH]cc1[C@]21COC2(CN(C(=O)Cc3ccccc3)C2)C1` [Compound 948036], the IC50 in experiment [1] (setting [7]) and in experiment [2] (setting [8]) was 100 to 1000 nM each time.

For the compound `CC[C@]1(c2cccc(N3CCCC[C@H]3C)c2)C2=C(CC(C)(C)CC2=O)Nc2n[nH]cc21` [Compound 917210], the IC50 in experiment [1] (setting [9]) and in experiment [2] (setting [10]) was over 5000 nM in each case.

With `CC1(C)CC(=O)C2=C(C1)Nc1n[nH]cc1C21CN(c2ccncc2)C1` [Compound 912077], the IC50 in experiment [1] (setting [9]) and in experiment [2] (setting [10]) was over 5000 nM in each case.

As for `CCC1(c2cccc(-c3ccnn3C(C)C)c2)C2=C(CC(C)(C)CC2=O)Nc2n[nH]cc21` (centres unmarked) [Compound 946092], the IC50 is 1000 to 5000 nM in experiment [1] (setting [11]) and over 5000 nM in experiment [2] (setting [12]).

`CCC1(c2cccc(-c3cn(C)nc3C(F)(F)F)c2)C2=C(CC(C)(C)NC2=O)Nc2n[nH]cc21` (centres unmarked) [Compound 949266]: the figures for the IC50 in experiment [1] (setting [9]) and in experiment [2] (setting [10]) were at most 100 nM and 100 to 1000 nM, respectively.

With `CC[C@]1(c2cccc(C(F)(F)F)c2)C2=C(Nc3n[nH]cc31)[C@@H](C)NC2=O` [Compound 945380], the IC50 in experiment [1] (setting [7]) and in experiment [2] (setting [8]) was over 5000 nM in each case.

In the case of `CCC1(c2cccc(-c3ccnc(C)c3C)c2)C2=C(CC(C)(C)CC2=O)Nc2n[nH]cc21` (centres unmarked) [Compound 943517], the IC50 in experiment [1] (setting [11]) is 100 to 1000 nM; in experiment [2] (setting [12]), over 5000 nM.

Regarding `CC[C@]1(c2cccc(C(F)(F)F)c2)C2=C(CCN(c3cccc(C)c3)C2=O)Nc2n[nH]cc21` [Compound 949041], the IC50 in experiment [1] (setting [3]) is 1000 to 5000 nM; in experiment [2] (setting [5]), over 5000 nM.

On to `C[C@H]1C[C@]2(CCO1)C1=C(CC(C)(C)CC1=O)Nc1n[nH]cc12` [Compound 924307], for which the IC50 in experiment [1] (setting [11]) and in experiment [2] (setting [12]) was 100 to 1000 nM each time.

Consider `CC[C@]1(c2cccc(-c3cnn(C)c3C)c2)C2=C(CC(C)(C)NC2=O)Nc2n[nH]c(C)c21` [Compound 945727], for which the IC50 in experiment [1] (setting [7]) and in experiment [2] (setting [8]) was over 5000 nM throughout.

For `CC(C)CC(=O)N1CC2(C1)CC1(CO2)C2=C(CC(C)(C)CC2=O)Nc2n[nH]cc21` (centres unmarked) [Compound 947302], the IC50 in experiment [1] (setting [7]) and in experiment [2] (setting [8]) was at most 100 nM each time.

On to `CCC1(c2cccc(-c3cncn3C)c2)C2=C(CC(C)(C)NC2=O)Nc2n[nH]cc21` (centres unmarked) [Compound 947806], for which the IC50 in experiment [1] (setting [3]) and in experiment [2] (setting [5]) was at most 100 nM throughout.

Take `CC1(C)CC(=O)C2=C(C1)Nc1n[nH]cc1[C@@]21CCCc2c(-c3ccncc3)cccc21` [Compound 945547]: the IC50 in experiment [1] (setting [11]) was 1000 to 5000 nM; in experiment [2] (setting [12]) it was over 5000 nM.

On to `CCC1(c2ccccc2)C2=C(CC3(CCCC3)CC2=O)Nc2n[nH]cc21` (centres unmarked) [Compound 785737], for which the values for the IC50 in experiment [1] (setting [3]) and in experiment [2] (setting [5]) were at most 100 nM and 100 to 1000 nM, respectively.

For `CC[C@]1(c2cccc(-c3ccnc(C)c3C)c2)C2=C(CC(C)(C)NC2=O)Nc2n[nH]cc21` [Compound 948184], the IC50 in experiment [1] (setting [3]) was at most 100 nM; in experiment [1] (setting [4]), 100 to 1000 nM; in experiment [2] (setting [5]), 100 to 1000 nM; in experiment [2] (setting [6]) it was 1000 to 5000 nM.

Regarding `CCC1(c2cccc(OC)c2)C2=C(CC(C)(C)NC2=O)Nc2n[nH]c(C(F)(F)F)c21` (centres unmarked) [Compound 949748], the IC50 is at most 100 nM in experiment [1] (setting [9]) and 100 to 1000 nM in experiment [2] (setting [10]).

With `C[C@@H]1CC[C@]2(C1)C1=C(CC(C)(C)CC1=O)Nc1n[nH]cc12` [Compound 897750], the IC50 in experiment [1] (setting [11]) and in experiment [2] (setting [12]) was at most 100 nM in each case.

`CC1(C)CC(=O)C2=C(C1)Nc1n[nH]cc1C2(CO)CO` [Compound 889570]: the IC50 in experiment [1] (setting [9]) and in experiment [2] (setting [10]) was over 5000 nM throughout.

Consider `CCC1(c2cccc(N(C)C(=O)CCc3ccccc3)c2)C2=C(CC(C)(C)CC2=O)Nc2n[nH]cc21` (centres unmarked) [Compound 912066], for which the results for the IC50 in experiment [1] (setting [9]) and in experiment [2] (setting [10]) were at most 100 nM and 100 to 1000 nM, respectively.

For the origin of these results see patent US20250313563A1, “GLYCOGEN SYNTHASE KINASE 3 INHIBITORS AND USES THEREOF” (The Broad Institute, Inc., priority 2022, published 2025).
